Values after ≈ are worked out from the molar mass of the structure shown. “Also recorded” adds a separate entry of the source.
Columns and labels:
[1] = tested on: MRSA; assay: Cytoplasmic leakage & bacteriolysis assay; assay type: cell-based, Staphylococcus aureus; settings: for change in A260 of culture supernatant (cytoplasmic leakage): 4×MIC (8 mg/L), within the first 30 minutes, versus untreated controls; for number of viable cells (CFUs) during the leakage assay: over the 3 hour period
Protocol: Bacteria were cultured to mid-log phase (OD600 ∼0.4) in LB media with shaking. Bacteria were then harvested and resuspended in PBS to a concentration of ∼10^8 CFU/mL. […] Bacteria were monitored over time for cytoplasmic leakage via A260 measurements and for cell viability. For A260 readings, sample aliquots were centrifuged for 5 min at 10,000×g at room temperature to remove cellular debris. Viability was monitored by determining the CFU/mL during the first 3 hours post treatment as described above for the kill curve assays.

[2] = tested on: E. coli K91; assay: Bacterial viability assay; assay type: cell-based, Escherichia coli; settings: Escherichia coli, 1 h, one hour in PBS, CFU, ± SEM
Protocol: (§1) Supplementary file pone.0097742.s003.doc: Table S1 Bacterial viability assays. Bacteria were grown at 37°C to mid-log phase (OD600 ∼0.4). The bacteria were diluted to approximately 10^4 to 10^5 colony forming units (CFU) per milliliter and added to a solution of phosphate buffered saline (PBS, 16 mM phosphate, 0.14 M NaCl, pH 7.2) containing the compound at varied concentrations. Samples were incubated at 37°C for one hour and then plated on Luria Bertani (LB) agar at appropriate dilutions in PBS. The plates were incubated overnight at 37°C and colonies enumerated the following day. IC50s were calculated from graphs of CFU as a function of compound concentration. Chlorhexidine was used as a positive control. […] (DOC) Click here for additional data file.
(§2) Bacterial viability assays. Bacteria were grown at 37°C to mid-log phase (OD600 ~0.4). The bacteria were diluted to approximately 10^4 to 10^5 colony forming units (CFU) per milliliter and added to a solution of phosphate buffered saline (PBS, 16 mM phosphate, 0.14 M NaCl, pH 7.2) containing the compound at varied concentrations. Samples were incubated at 37°C for one hour and then plated on Luria Bertani (LB) agar at appropriate dilutions in PBS. The plates were incubated overnight at 37°C and colonies enumerated the following day. IC50s were calculated from graphs of CFU as a function of compound concentration. Chlorhexidine was used as a positive control.

[3] = tested on: A. baumannii ATCC BAA1605; assay: Bacterial viability assay; assay type: cell-based, Acinetobacter baumannii; settings: Acinetobacter baumannii, ATCCBAA1605, 1 h, one hour in PBS, CFU, ± SEM
Protocol: as §1, §2

[4] = tested on: A. baumannii ATCC 19606; assay: Bacterial viability assay; assay type: cell-based, Acinetobacter baumannii; settings: Acinetobacter baumannii, ATCC19606, 1 h, one hour in PBS, CFU, ± SEM
Protocol: as §1, §2

[5] = tested on: Escherichia coli (strain K91); assay: Minimum bactericidal concentration; assay type: cell-based; settings: E. coli K91; MHB; median; 3-log reduction of viable bacteria
Protocol: (§3) Minimum inhibitory concentration (MIC) values were determined for those compounds showing the most antibacterial activity in the bacterial viability assays (see Supplemental Materials) against each of the strains of bacteria using a microdilution method in 96 well plates with LB media according to guidelines published by the British Society for Antimicrobial Chemotherapy. Minimum bactericidal concentrations (MBC) were determined by plating 10 µL and 100 µL from each well showing no signs of growth after overnight incubation of the MIC plates and determining the minimum concentration showing a 3-log reduction of viable bacteria. MIC and MBC were also determined in cation-adjusted Mueller-Hinton broth (Hardy Diagnostics, Santa Maria, CA) for some compounds and strains.

[6] = tested on: Staphylococcus aureus RN4220; assay: Minimum bactericidal concentration; assay type: cell-based; settings: S. aureus RN4220; MHB; median; 3-log reduction of viable bacteria
Protocol: as §3

[7] = tested on: MRSA; assay: Time-to-kill (kill curve) assay; assay type: cell-based, Staphylococcus aureus
Protocol: Bacteria were cultured to mid-log phase (OD600 ∼0.4) in LB media with shaking and then diluted to approximately 10^4 to 10^5 CFU/mL. Bacteria were then treated with compound at the MIC, 2×MIC, and 4×MIC (as determined by the MIC assays). Over the course of 24 hours, bacteria were incubated at 37°C and aliquots removed at various time intervals, diluted, and plated on LB agar. Plated bacteria were incubated overnight at 37°C and CFU/mL were calculated for each time interval.

[8] = tested on: P. aeruginosa PA01; assay: Bacterial viability assay; assay type: cell-based, Pseudomonas aeruginosa; settings: Pseudomonas aeruginosa, 1 h, one hour in PBS, CFU, ± SEM
Protocol: as §1, §2

[9] = tested on: MRSA USA300; assay: Bacterial viability assay; assay type: cell-based, Staphylococcus aureus; settings: Staphylococcus aureus, 1 h, one hour in PBS, CFU, ± SEM
Protocol: as §1, §2

[10] = tested on: S. aureus RN4220; assay: Bacterial viability assay; assay type: cell-based, Staphylococcus aureus; settings: Staphylococcus aureus, 1 h, one hour in PBS, CFU, ± SEM
Protocol: (§4) Supplementary file pone.0097742.s003.doc: Table S1 Bacterial viability assays. Bacteria were grown at 37°C to mid-log phase (OD600 ∼0.4). The bacteria were diluted to approximately 10^4 to 10^5 colony forming units (CFU) per milliliter and added to a solution of phosphate buffered saline (PBS, 16 mM phosphate, 0.14 M NaCl, pH 7.2) containing the compound at varied concentrations. Samples were incubated at 37°C for one hour and then plated on Luria Bertani (LB) agar at appropriate dilutions in PBS. The plates were incubated overnight at 37°C and colonies enumerated the following day. IC50s were calculated from graphs of CFU as a function of compound concentration. Chlorhexidine was used as a positive control. Included are those guanide (G), biguanide (BG), phenylguanide (ΦG) compounds that had some antibacterial activity in an initial screen at 30 and 100 µM, as well as their and parent amines. Compounds synthesized from 1,4-butanediamine, 1,6-hexanediamine, trisethylaminomelamine, trisbutylaminomelamine, and the dendrimer PAMAM (G0) were not active against E. coli, P aeruginosa, or S. aureus so they were not tested against the remaining bacteria (data not shown). (DOC) Click here for additional data file.
as §4, with “Bacterial” for “Supplementary file pone.0097742.s003.doc: Table S1 Bacterial”, “~0.4).” for “∼0.4).”, “μM,” for “µM,”, “shown).” for “shown). (DOC) Click here for additional data file.”

SMILES	change in A260 of culture supernatant (cytoplasmic leakage) [1]	change in A260 of culture supernatant (cytoplasmic leakage) ([1]; listed as chlorhexidine)	number of viable cells (CFUs) during the leakage assay [1]	number of viable cells (CFUs) during the leakage assay ([1]; listed as chlorhexidine)	IC50 [2]	IC50 [3]	IC50 [4]	MBC [5]	MBC [6]	time by which bactericidal activity was seen ([7]; 1× to 4×MIC)	IC50 [8]	IC50 [9]	IC50 [10]	change in A260 of culture supernatant (cytoplasmic leakage) ([1]; listed as THAM-3ФG)	number of viable cells (CFUs) during the leakage assay ([1]; listed as THAM-3ФG)	reduction in CFU/mL ([7]; 4×MIC, within 4 hours post treatment)	time after which no viable cells remained ([7]; at the MIC)
[H]/N=C(\N/C(=N/[H])NCCCCCCNC(=N)NC(=N)Nc1ccc(Cl)cc1)Nc1ccc(Cl)cc1 [Chlorhexidine, chlorhexidine, reference compound]	immediate increase in A260	significant increase in A260	no significant reductions in CFUs	no significant reduction in CFUs	1.7 ± 0.6 µM	0.78 ± 0.31 µM	1.3 ± 0.2 µM	0.44 µg/mL (≈ 0.87 µM)	0.89 µg/mL (≈ 1.76 µM)	≤ 24 h	2.6 ± 0.5 µM	13 µM	0.86 ± 0.21 µM	–	–	–	–
N=C(NCCCCCCNc1nc(NCCCCCCNC(=N)Nc2ccccc2)nc(NCCCCCCNC(=N)Nc2ccccc2)n1)Nc1ccccc1 [THAM-3ΦG, Trishexylaminomelamine trisphenylguanide]	–	–	–	–	3.8 ± 1.6 µM	4.3 ± 1 µM	0.86 ± 0.25 µM	16 µg/mL (≈ 20.6 µM)	2 µg/mL (≈ 2.57 µM)	–	4.5 ± 2.5 µM	3.9 ± 0.5 µM	1.7 ± 0.9 µM	significant increase in A260; also recorded: immediate increase in A260	no significant reductions in CFUs	3 log	24 h

Reference: PMC4026384, “Antibacterial Activity of THAM Trisphenylguanide against Methicillin-Resistant Staphylococcus aureus” (PLoS ONE, 2014)
